What was measured:
[1] = tested on: JAK2/2 signaling pathway (GM-CSF/pSTAT5); test: GM-CSF-stimulated pSTAT5 in human PBMC (flow cytometry); type: cell-based; details: CD33-positive cells
Description: The purpose of this experiment was to detect the inhibitory effect of the compounds on cytokine-activated JAK-STAT signaling pathways in human peripheral blood mononuclear cells (PBMC).
• a) PBMCs frozen in liquid nitrogen were thawed in a 37° C. water bath, and culture medium was added. The mixture was then centrifuged at 320 g for 3 minutes. • b) Cells were resuspended in culture medium, counted, and the cell concentration was adjusted to 5×10^5 cells/mL with culture medium. Subsequently, the cell suspension was inoculated into […] 96-well round-bottom plates, with 200 μL per well. The plates were incubated at 37° C. with 5% CO2 for 90 minutes. • c) Different concentrations of the test compound (starting at 2 μM, 5-fold serial dilution, a total of 8 concentrations) were added, followed by incubation at 37° C. with 5% CO2 for 30 minutes. • d) IL-6 (final concentration at 20 ng/mL) was added to the first round-bottom plate and incubated at 37° C. with 5% CO2 for 15 minutes. • e) IFNα (final concentration at 1000 U/mL) was added to the second round-bottom plate and incubated at 37° C. with 5% CO2 for 15 minutes. • f) IL-2 (final concentration at 4 ng/mL) was added to the third round-bottom plate and incubated at 37° C. with 5% CO2 for 15 minutes. • g) GM-CSF (final concentration at […]) was added to the fourth round-bottom plate and incubated at 37° C. with 5% CO2 for 15 minutes. • h) Cells were centrifuged at 320 g for 3 minutes, and each well was washed once with 200 μL of staining solution. • i) 50 μL of staining solution containing human CD33 antibody was added to each well of the GM-CSF-stimulated culture plate, and 50 μL of staining solution containing CD4 antibody was added to the remaining three culture plates. The staining was performed at 4° C. for 30 minutes. The cells were washed twice with the staining solution. • j) 100 μL of fixation buffer was added to each well, and the cells were fixed at 4° C. for 15 minutes. The cells were washed once with the staining solution. • k) 100 μL of permeabilization buffer was added to each well, and the cells were permeabilized at 4° C. for 20 minutes. The cells were washed twice with the staining solution. • l) 50 μL of staining solution containing human pSTAT1 antibody was added to each well of the IL-6 and IFN-α-stimulated culture plates, and 50 μL of staining solution containing human pSTAT5 antibody was added to each well of the IL-2 and GM-CSF-stimulated culture plates. The staining was performed at room temperature for 15 minutes. The cells were washed twice with the staining solution. • m) The cells were resuspended in 150 μL of staining solution. • n) The fluorescence intensity of pSTAT1 (stimulated by IL-6 and IFN-α) or pSTAT5 (stimulated by IL-2) in CD4-positive cells was detected using flow cytometer. The fluorescence intensity of pSTAT5 (stimulated by GM-CSF) in CD33-positive cells was also detected.
Data analysis was performed using Flowjo software to determine the IC50 of the compounds.

[2] = tested on: JAK2/2 signaling pathway (TPO/pSTAT5); test: TPO-induced STAT phosphorylation in human platelet-rich plasma; type: cell-based
Description: The purpose of this experiment was to detect the inhibitory effect of the compound on the JAK-STAT signaling pathway activated by cytokines in human whole blood or platelet-rich plasma. Fresh human whole blood/platelets were placed in a 96-well plate. The test compound was added and incubated for 1 hour, followed by stimulation with various cytokines. The corresponding STAT phosphorylation levels in different cell populations were analyzed using flow cytometer by means of surface antibody staining and intracellular phosphorylated antibody staining. The experiments using the cytokines IFN-α, […] as stimulants were conducted in human whole blood, whereas the experiment using the cytokine TPO as a stimulant was conducted in platelet-rich plasma.
• a) Fresh blood from volunteers was collected using EDTA anticoagulant tubes and centrifuged at 200 g for 20 minutes to prepare platelet-rich plasma (PRP). • b) 90 μL per well of PRP was rapidly seeded into a 96-well plate and incubated in a cell culture incubator for 15 minutes. […] The plate was then incubated in the incubator for 15 minutes. • d) After incubation, the plate was centrifuged at 1000×g for 10 minutes, then the supernatant was discarded, and the cells were washed twice with 200 μL of PBS. • e) PE-anti-human CD61 antibody was added to each well, followed by incubation at room temperature for 40 minutes. • f) After incubation, the plate was centrifuged at 1000×g for 10 minutes, then the supernatant was discarded, and the cells were washed twice with 200 μL of PBS. • g) The cells were resuspended in 200 μL of pre-cooled Perm Buffer III and permeabilized on ice for 60 minutes. • h) The plate was centrifuged at 1000×g for 10 minutes, then the supernatant was discarded, and the cells were washed twice with pre-cooled PBS. • i) Intracellular anti-pSTAT5 phosphorylated antibody was added thereto, followed by incubation at room temperature for 60 minutes. • j) The cells were washed twice with PBS and resuspended in 200 μL of PBS, and then detected using the CytoFlex S flow cytometer. […]

SMILES	IC50 [1]	IC50 [2]
CNC(=O)c1cnc(NC(=O)C2CC2)cc1Nc1cccc(-c2ccc(S(=O)(=O)C(C)C)cn2)c1OC.Cl [Hydrochloride of WX-020]	1.07 µM	
CNC(=O)c1nnc(NC(=O)C2CC2)cc1Nc1cccc(-c2ncc(S(=N)(=O)C(C)C)cn2)c1OC (single isomer, unassigned) [WX-011A]	1.66 µM	> 100 µM
CNC(=O)c1cnc(NC(=O)C2CC2)cc1Nc1cccc(-c2ncc(S(=O)(=O)C(C)C)cn2)c1OC [WX-019]	1.44 µM	> 100 µM
CNC(=O)c1nnc(NC(=O)C2CC2)cc1Nc1cccc(-c2ccc(P(=O)(C3CC3)C3CC3)cn2)c1OC [WX-021]	0.58 µM	
CNC(=O)c1cnc(NC(=O)C2CC2)cc1Nc1cccc(-c2ccc(S(=O)(=O)C(C)C)cn2)c1OC [WX-020]		> 100 µM
CNC(=O)c1nnc(NC(=O)C2CC2)cc1Nc1cccc(-c2ncc(S(=N)(=O)C(C)C)cn2)c1OC (single isomer, unassigned) [WX-011B]	1.35 µM	

Source: patent publication US20240335462A1, “SULFUR/PHOSPHORUS-CONTAINING ARYL COMPOUND AND APPLICATION THEREOF” (MEDSHINE DISCOVERY INC., priority 2021, published 2024)
